In patent EP4043466B1, “PRC2 INHIBITORS” (Mirati Therapeutics, Inc., priority 2018, dated 2019):

What was measured:
[1] = biological target: purified human, His-tagged PRC2 complex (Homo sapiens, UniProt O75530+Q15910); assay: Hot Spot HMT assay: inhibition of PRC2 enzymatic activity (transfer of tritiated methyl from SAM to core histone, filter binding); assay type: biochemical; settings: Inhibition of PRC2-mediated enzymatic activity; 10 nM PRC2 complex, 0.05 mg/ml core histone H3, 1 uM 3H-SAM, 1 hr at 30°C
Chain of purified human, His-tagged PRC2 complex (Q15910 whole entry): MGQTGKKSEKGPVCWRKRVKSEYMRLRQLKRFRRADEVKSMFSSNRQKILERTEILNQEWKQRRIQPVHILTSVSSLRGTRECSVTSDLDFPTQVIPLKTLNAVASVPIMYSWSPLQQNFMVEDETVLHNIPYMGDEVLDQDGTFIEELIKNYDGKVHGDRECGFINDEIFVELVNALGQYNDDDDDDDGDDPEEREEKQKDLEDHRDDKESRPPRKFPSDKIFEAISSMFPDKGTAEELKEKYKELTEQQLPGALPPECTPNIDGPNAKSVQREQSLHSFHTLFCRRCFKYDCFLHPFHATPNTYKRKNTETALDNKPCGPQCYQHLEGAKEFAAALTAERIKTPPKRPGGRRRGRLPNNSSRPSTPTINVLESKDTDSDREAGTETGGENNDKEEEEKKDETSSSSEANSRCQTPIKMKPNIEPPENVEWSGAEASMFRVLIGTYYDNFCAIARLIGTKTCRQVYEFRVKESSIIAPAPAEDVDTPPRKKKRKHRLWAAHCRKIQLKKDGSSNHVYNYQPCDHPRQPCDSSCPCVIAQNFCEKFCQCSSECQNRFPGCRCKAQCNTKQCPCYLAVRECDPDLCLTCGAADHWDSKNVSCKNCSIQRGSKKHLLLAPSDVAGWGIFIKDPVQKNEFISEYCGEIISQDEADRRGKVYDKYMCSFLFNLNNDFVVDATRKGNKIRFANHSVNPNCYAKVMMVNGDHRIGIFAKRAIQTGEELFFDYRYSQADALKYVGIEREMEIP
Chain of purified human, His-tagged PRC2 complex (O75530 whole entry): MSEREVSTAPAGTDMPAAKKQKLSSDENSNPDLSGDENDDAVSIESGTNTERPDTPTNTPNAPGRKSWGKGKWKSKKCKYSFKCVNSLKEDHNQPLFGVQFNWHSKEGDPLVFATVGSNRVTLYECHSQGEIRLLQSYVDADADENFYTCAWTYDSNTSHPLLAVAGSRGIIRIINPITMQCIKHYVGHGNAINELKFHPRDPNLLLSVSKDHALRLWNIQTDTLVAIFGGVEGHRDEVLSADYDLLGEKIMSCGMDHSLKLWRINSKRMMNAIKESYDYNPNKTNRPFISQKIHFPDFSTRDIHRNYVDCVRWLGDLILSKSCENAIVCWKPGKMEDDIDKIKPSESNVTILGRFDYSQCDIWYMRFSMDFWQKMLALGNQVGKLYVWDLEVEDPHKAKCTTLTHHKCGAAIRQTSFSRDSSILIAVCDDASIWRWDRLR
Chain of purified human, His-tagged PRC2 complex (Q15022 whole entry partner): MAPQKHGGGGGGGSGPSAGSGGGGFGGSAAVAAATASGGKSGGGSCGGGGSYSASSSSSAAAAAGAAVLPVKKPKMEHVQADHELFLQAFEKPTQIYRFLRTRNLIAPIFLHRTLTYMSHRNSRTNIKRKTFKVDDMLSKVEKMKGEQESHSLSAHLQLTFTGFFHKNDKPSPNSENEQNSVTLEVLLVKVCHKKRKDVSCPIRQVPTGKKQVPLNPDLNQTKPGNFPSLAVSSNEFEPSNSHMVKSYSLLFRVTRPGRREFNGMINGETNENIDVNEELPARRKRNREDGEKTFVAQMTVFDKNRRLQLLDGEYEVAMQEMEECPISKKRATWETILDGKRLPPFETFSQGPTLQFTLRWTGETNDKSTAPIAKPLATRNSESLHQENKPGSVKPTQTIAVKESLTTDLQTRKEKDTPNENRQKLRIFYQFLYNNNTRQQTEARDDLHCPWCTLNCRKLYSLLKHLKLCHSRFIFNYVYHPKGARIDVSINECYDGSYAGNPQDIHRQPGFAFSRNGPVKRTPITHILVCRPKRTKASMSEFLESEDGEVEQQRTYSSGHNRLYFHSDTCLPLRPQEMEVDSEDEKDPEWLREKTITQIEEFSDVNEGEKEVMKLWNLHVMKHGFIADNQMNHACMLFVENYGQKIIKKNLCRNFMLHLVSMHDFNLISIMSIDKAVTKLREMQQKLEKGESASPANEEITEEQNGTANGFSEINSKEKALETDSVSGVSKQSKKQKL
Chain of purified human, His-tagged PRC2 complex (Q6ZN18 whole entry partner): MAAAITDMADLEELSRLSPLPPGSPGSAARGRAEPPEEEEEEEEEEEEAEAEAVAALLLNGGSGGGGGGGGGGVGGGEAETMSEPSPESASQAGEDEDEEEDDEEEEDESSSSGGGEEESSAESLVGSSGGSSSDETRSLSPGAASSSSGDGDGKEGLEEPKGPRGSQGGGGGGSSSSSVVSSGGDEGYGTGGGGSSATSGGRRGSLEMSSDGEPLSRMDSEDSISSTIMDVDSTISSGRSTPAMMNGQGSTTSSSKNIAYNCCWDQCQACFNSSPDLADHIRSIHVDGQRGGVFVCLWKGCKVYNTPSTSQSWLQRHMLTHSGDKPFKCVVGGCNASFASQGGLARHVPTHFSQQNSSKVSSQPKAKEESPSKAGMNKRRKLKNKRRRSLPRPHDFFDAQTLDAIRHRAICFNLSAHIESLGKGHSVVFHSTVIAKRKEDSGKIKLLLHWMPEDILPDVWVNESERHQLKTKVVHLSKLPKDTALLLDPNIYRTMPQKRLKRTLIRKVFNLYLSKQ
Chain of purified human, His-tagged PRC2 complex (Q09028 whole entry partner): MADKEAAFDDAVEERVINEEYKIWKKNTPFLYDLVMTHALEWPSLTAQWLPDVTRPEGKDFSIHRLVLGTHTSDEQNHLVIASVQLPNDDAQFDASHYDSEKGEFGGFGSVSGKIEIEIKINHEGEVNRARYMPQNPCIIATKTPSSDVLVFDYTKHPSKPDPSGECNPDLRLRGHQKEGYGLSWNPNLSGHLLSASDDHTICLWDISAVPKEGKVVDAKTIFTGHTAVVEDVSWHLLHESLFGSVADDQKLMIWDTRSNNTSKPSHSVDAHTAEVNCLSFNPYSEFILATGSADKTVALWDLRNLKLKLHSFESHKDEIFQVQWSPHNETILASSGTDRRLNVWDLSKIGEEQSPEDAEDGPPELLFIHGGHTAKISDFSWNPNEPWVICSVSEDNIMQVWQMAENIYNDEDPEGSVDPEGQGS
From the text: The assay uses purified human, His-tagged PRC2 complex, including N-terminal His-tagged EZH2 enzyme, N-terminal Flag-tagged embryonic ectoderm development protein (EED), N-terminal His-tagged suppressor of zeste 12 (SUZ12), N-terminal His-tagged AEBP2, and N-terminal His-tagged RbAp48. In this assay, the transfer of the tritiated methyl group from radiolabeled S-adenosyl methionine (SAM) to purified core histone protein by EZH2 is quantitated after filtration to determine the activity of the core PRC2 complex in the presence and absence of compound.
The initial starting concentration for the serial dilutions of each compound was 1.0 µM. […] SAH (S-(5-adenosyl)-L-homocysteine) was used as a positive control for assay validation.
An aliquot of each serial dilution of test compound was added to deep 384 well plate using Acoustic Technology instrument (Echo 550, LabCyte) containing reaction buffer (50 mM Tris-HCl (pH 8.)), 0.01% Brij35, 1 mM EDTA, 1 mM DTT, 1 mM PMSF and 1% DMSO), 10 nM purified PRC2 complex and 0.05 mg/ml core histone H3 in a 5 µl volume. The reaction was mixed gently and then pre-incubated for 20 min at 30°C. The enzymatic reaction was initiated by adding 1 uM S-Adenosyl-L-[methyl - ^3H]methionine and incubated for 1 hr at 30°C. After 1 hr, the reaction product was detected using a filter binding method and the amount of tritiated H3 core histone was quantitated using a scintillation counter.

Karpas 422 cells = assay: Karpas 422 cell viability, CTG (Cell Titre Glo) assay; assay type: cell-based, human; settings: Homo sapiens; Inhibition of proliferation of Karpas 422 cells (EZH2 Y641N); viability measured Day 4, Day 7 or Day 11, time point of the tabulated values not stated
Procedure: Karpas 422 cell line is a human B cell non-Hodgkin's lymphoma cell line established from a patient having DLBCL. This EZH2 heterozygotic cell line expresses a mutant form of EZH2 enzyme (Y641N) that increases histone H3 methylation and this mutation has been implicated in the tumorgenesis of lymphomas, such as DLBCL.
Karpas 422 cells (PHE cat no., 06101702) were cultured in RPMI medium supplemented with 20% fetal bovine serum and 1% penicillin/1% streptomycin and plated at a density of 1000 cells/90 µl/well in 96 well white assay plates. A dose response curve for compounds of the present invention was determined by adding a 10µl aliquot of stock solutions of varying concentrations of compounds to the same medium in each well, over a concentration range of 10µM using 3-fold dilutions to a final concentration of 1.5nM. The plates were incubated at 37° C for predetermined time periods, Day 4, Day 7, or Day 11, and the viability of the cells was measured using a CTG assay kit (Cell Titre Glo; Promega cat.no G7573) on Day 4 and Day 7 in accordance with the manufacturer's instructions.
For the viability assay for the Day 11 plates, the plates were subjected to centrifugation at 1100 rpm for five minutes on Day 7 and the supernatant was removed by aspiration. The cells were resuspended in 90 µl aliquot of the appropriate growth medium lacking the compound followed by addition of 10 µl of a 10X stock of the same compound at the same concentration. The viability of the Day 11 cells was measured using the CTG assay kit described above in accordance with the manufacturer's instructions. The IC50 values for each compound at each predetermined time point were calculated using Graph pad PRISM software and the results are shown in Table 15. A = ≤250 nM; B = […] - ≤500 nM; and C = >500 nM.

IC50 [1] [nM]	IC50 (Karpas 422 cells) [nM]	Compound
100 to 500	≤ 250	CN(C)Cc1c(F)cc(-c2cnc(NCc3c(F)ccc4c3CCO4)n3cc(C#N)nc23)cc1F [Example 149, 8-(4-((dimethylamino)methyl)-3,5-difluorophenyl)-5-(((5-fluoro-2,3-dihydrobenzofuran-4-yl)methyl)amino)imidazo[1,2-c]pyrimidine-2-carbonitrile]
< 100	250 to 500	CC(C)(O)Cn1cc(-c2cnc(NCc3c(F)ccc4c3CCO4)n3cc(C#N)nc23)cn1 [Example 121, 5-(((5-fluoro-2,3-dihydrobenzofuran-4-yl)methyl)amino)-8-(1-(2-hydroxy-2-methylpropyl)-1H-pyrazol-4-yl)imidazo[1,2-c]pyrimidine-2-carbonitrile]
	≤ 250	Cc1cc(S(C)(=O)=O)ccc1-c1cnc(NCc2c(F)ccc3c2CCO3)n2cc(C#N)nc12 [Example 87, 5-(((5-fluoro-2,3-dihydrobenzofuran-4-yl)methyl)amino)-8-(2-methyl-4-(methylsulfonyl)phenyl)imidazo[1,2-c]pyrimidine-2-carbonitrile]
100 to 500		Cc1c(-c2cnc(NCc3c(F)ccc4c3CCO4)n3cc(C#N)nc23)cnn1C(C)C [Example 26, 5-(((5-fluoro-2,3-dihydrobenzofuran-4-yl)methyl)amino)-8-(1-isopropyl-5-methyl-1H-pyrazol-4-yl)imidazo[1,2-c]pyrimidine-2-carbonitrile]
< 100		Cc1cc(-c2cnc(NCc3c(F)ccc4occc34)n3cc(C(N)=O)nc23)n(C)n1 [Example 18, 8-(1,3-dimethyl-1H-pyrazol-5-yl)-5-(((5-fluorobenzofuran-4-yl)methyl)amino)imidazo[1,2-c]pyrimidine-2-carboxamide]
100 to 500		N#Cc1cn2c(NCc3c(F)ccc4c3CCO4)ncc(-c3cnn(C4CCOC4)c3)c2n1 (centres unmarked) [Example 107, 5-(((5-fluoro-2,3-dihydrobenzofuran-4-yl)methyl)amino)-8-(1-(tetrahydrofuran-3-yl)-1H-pyrazol-4-yl)imidazo[1,2-c]pyrimidine-2-carbonitrile]
> 500		8-(1,3-dimethyl-1H-pyrazol-5-yl)-5-(((6-fluorochroman-5-yl)methyl)amino)imidazo[1,2-c]pyrimidine-2-carbonitrile [Example 122]
100 to 500		Cc1cc(-c2cnc(NCc3cccc4c3CCO4)n3cc(C#N)nc23)n(C)n1 [Example 30, 5-(((2,3-dihydrobenzofuran-4-yl)methyl)amino)-8-(1,3-dimethyl-1H-pyrazol-5-yl)imidazo[1,2-c]pyrimidine-2-carbonitrile]
100 to 500		COc1cc(C)c(-c2cnc(NCc3c(F)ccc4c3CCO4)n3cc(C#N)nc23)cn1 [Example 24, 5-(((5-fluoro-2,3-dihydrobenzofuran-4-yl)methyl)amino)-8-(6-methoxy-4-methylpyridin-3-yl)imidazo[1,2-c]pyrimidine-2-carbonitrile]
< 100		N#Cc1cncc(-c2cnc(NCc3c(F)ccc4c3CCO4)n3cc(C#N)nc23)c1 [Example 95, 8-(5-cyanopyridin-3-yl)-5-(((5-fluoro-2,3-dihydrobenzofuran-4-yl)methyl)amino)imidazo[1,2-c]pyrimidine-2-carbonitrile]
< 100		Cc1c(-c2cnc(NCc3c(F)ccc4c3CCO4)n3cc(C(=O)O)nc23)cnn1C(C)C [Example 8, 5-(((5-fluoro-2,3-dihydrobenzofuran-4-yl)methyl)amino)-8-(1-isopropyl-5-methyl-1H-pyrazol-4-yl)imidazo[1,2-c]pyrimidine-2-carboxylic acid]
< 100		CN(C)C(=O)c1ccc(-c2cnc(NCc3c(F)ccc4c3CCO4)n3cc(C#N)nc23)c(Cl)c1F [Example 34, 3-chloro-4-(2-cyano-5-(((5-fluoro-2,3-dlhydrobenzofuran-4-yl)methyl)amino)imidazo[1,2-c]pyrimidin-8-yl)-2-fluoro-N,N-dimethylbenzamide]
< 100		CN(C)Cc1ccc(-c2cnc(NCc3c(F)ccc4c3CCO4)n3cc(C#N)nc23)c(Cl)c1F [Example 83, 8-(2-chloro-4-((dimethylamino)methyl)-3-fluorophenyl)-5-(((5-fluoro-2,3-dihydrobenzofuran-4-yl)methyl)amino)imidazo[1,2-c]pyrimidine-2-carbonitrile]
100 to 500		CN(C)CCn1cc(-c2cnc(NCc3c(F)ccc4c3CCO4)n3cc(C#N)nc23)cn1 [Example 102, 8-(1-(2-(dimethylamino)ethyl)-1H-pyrazol-4-yl)-5-(((5-fluoro-2,3-dihydrobenzofuran-4-yl)methyl)amino)imidazo[1,2-c]pyrimidine-2-carbonitrile]
> 500		Cc1cc(-c2cnc(NCc3cccc4c3OCO4)n3cc(C#N)nc23)n(C)n1 [Example 27, 5-((benzo[d][1,3]dioxol-4-ylmethyl)amino)-8-(1,3-dimethyl-1H-pyrazol-5-yl)imidazo[1,2-c]pyrimidine-2-carbonitrile]
100 to 500		COc1cc(Cl)c(-c2cnc(NCc3c(F)ccc4c3CCO4)n3cc(C#N)nc23)cn1 [Example 91, 8-(4-chloro-6-methoxypyridin-3-yl)-5-(((5-fluoro-2,3-dihydrobenzofuran-4-yl)methyl)amino)imidazo[1,2-c]pyrimidine-2-carbonitrile]
100 to 500		Cc1nc(C2CC2)ncc1-c1cnc(NCc2c(F)ccc3c2CCO3)n2cc(C(N)=O)nc12 [Example 15, 8-(2-cyclopropyl-4-methylpyrimidin-5-yl)-5-(((5-fluoro-2,3-dihydrobenzofuran-4-yl)methyl)amino)imidazo[1,2-c]pyrimidine-2-carboxamide]
< 100		Cc1cc(-c2cnc(NCc3cccc4c3CCO4)n3cc(C(=O)O)nc23)n(C)n1 [Example 10, 5-(((2,3-dihydrobenzofuran-4-yl)methyl)amino)-8-(1,3-dimethyl-1H-pyrazol-5-yl)imidazo[1,2-c]pyrimidine-2-carboxylic acid]
< 100		N#Cc1cn2c(NCc3c(F)ccc4c3CCO4)ncc(-c3ccc(C4COCCN4)cc3)c2n1 (centres unmarked) [Example 225, 5-(((5-fluoro-2,3-dihydrobenzofuran-4-yl)methyl)amino)-8-(4-(morpholin-3-yl)phenyl)imidazo[1,2-c]pyrimidine-2-carbonitrile]
< 100		CN1CCC1c1ccc(-c2cnc(NCc3c(F)ccc4c3CCO4)n3cc(C#N)nc23)cc1 (centres unmarked) [Example 221, 5-(((5-fluoro-2,3-dihydrobenzofuran-4-yl)methyl)amino)-8-(4-(1-methylazetidin-2-yl)phenyl)imidazo[1,2-c]pyrimidine-2-carbonitrile]
100 to 500		COc1cncc(-c2cnc(NCc3c(F)ccc4c3CCO4)n3cc(C#N)nc23)c1 [Example 93, 5-(((5-fluoro-2,3-dihydrobenzofuran-4-yl)methyl)amino)-8-(5-methoxypyridin-3-yl)imidazo[1,2-c]pyrimidine-2-carbonitrile]
100 to 500		Cc1nn(C(C)C)cc1-c1cnc(NCc2c(F)ccc3c2CCO3)n2cc(C#N)nc12 [Example 23, 5-(((5-fluoro-2,3-dihydrobenzofuran-4-yl)methyl)amino)-8-(1-isopropyl-3-methyl-1H-pyrazol-4-yl)imidazo[1,2-c]pyrimidine-2-carbonitrile]
< 100		CN(C)C(=O)c1cc(Cl)c(-c2cnc(NCc3c(F)ccc4c3CCO4)n3cc(C#N)nc23)cc1F [Example 35, 5-chloro-4-(2-cyano-5-(((5-fluoro-2,3-dlhydrobenzofuran-4-yl)methyl)amino)imidazo[1,2-c]pyrimidin-8-yl)-2-fluoro-N,N-dimethylbenzamide]

Compound	IC50 [1] [nM]	IC50 (Karpas 422 cells) [nM]
Cc1cn(-c2cnc(NCc3c(F)ccc4c3CCO4)n3cc(C#N)nc23)cn1 [Example 139, 5-(((5-fluoro-2,3-dihydrobenzofuran-4-yl)methyl)amino)-8-(4-methyl-1H-imidazol-1-yl)imidazo[1,2-c]pyrimidine-2-carbonitrile]		≤ 250
